Test results: patent publication US9994581B2, “Bromodomain inhibitors” (AbbVie Inc., priority 2013, dated 2018)

What was measured:
[1] = system: LPS induced IL-6 (Interleukin-6) production; assay: LPS (lipopolysaccharide) induced IL-6 production mouse assay; conditions: CD1 mouse strain; oral administration one hour before LPS 2.5 mg/kg i.p.; serum IL-6 2 hours after LPS; p < 0.05
BRD4 (BDI-BDII_K57-K550) = BRD4 (BDI-BDII_K57-K550) (Homo sapiens, UniProt O60885); assay: TR-FRET bromodomain binding assay; conditions: His-tagged tandem bromodomain, Alexa647-labeled probe; Ki calculated from IC50s, probe Kd and probe concentration
[2] = system: breast cancer cell line MX-1; assay: MX-1 cell line proliferation assay (3-day, Cell Titer Glo); type: cell-based; conditions: Homo sapiens, MX1, MX-1 cells, 72 hours, read-out: Cellular proliferation: EC50
Outline: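 MX-1 cells plated at 5000 cells/well and adhered overnight at 37°, then treated for 3 days with 10-point 3-fold dilutions (final top 3 or 1 μM). Viability by Cell Titer Glo luminescence normalized to DMSO-treated cells; EC50 from sigmoidal curve fit.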

Ki (BRD4 (BDI-BDII_K57-K550))	EC50 [2]	Structure (SMILES)	Inhibition of LPS induced IL-6 production, % inhibition [1]
0.93 nM	5.69 nM	CCS(=O)(=O)Nc1ccc2c(c1)-c1cn(C)c(=O)cc1OCCCCc1cc(Cl)ccc1O2 [Example A-9, N-(11-chloro-2-methyl-3-oxo-2,3,6,7,8,9-hexahydrodibenzo[4,5:7,8][1,6]dioxacyclododecino[3,2-c]pyridin-17-yl)ethanesulfonamide]	83%
2.16 nM	19.1 nM	Cn1cc2c(cc1=O)OCCCc1cc(Cl)ccc1Oc1ccc(NS(C)(=O)=O)cc1-2 [Example A-12, N-(10-chloro-2-methyl-3-oxo-3,6,7,8-tetrahydro-2H-dibenzo[4,5:7,8][1,6]dioxacycloundecino[3,2-c]pyridin-16-yl)methanesulfonamide]	47%
0.99 nM	13.6 nM	CCS(=O)(=O)c1ccc2c(c1)-c1cn(C)c(=O)cc1OCCCCc1cc(Cl)ccc1O2 [Example A-13, 11-chloro-17-(ethylsulfonyl)-2-methyl-6,7,8,9-tetrahydrodibenzo[4,5:7,8][1,6]dioxacyclododecino[3,2-c]pyridin-3(2H)-one]	82%
1.25 nM	8.69 nM	CCS(=O)(=O)c1ccc2c(c1)-c1cn(C)c(=O)cc1OCCCCc1cc(F)cc(F)c1O2 [Example A-20, 17-(ethylsulfonyl)-11,13-difluoro-2-methyl-6,7,8,9-tetrahydrodibenzo[4,5:7,8][1,6]dioxacyclododecino[3,2-c]pyridin-3(2H)-one]	81%
1.45 nM	5.68 nM	CCS(=O)(=O)Nc1cnc2c(c1)-c1cn(C)c(=O)cc1OCCCCc1cc(Cl)ccc1O2 [Example A-33, N-(11-chloro-2-methyl-3-oxo-2,3,6,7,8,9-hexahydrobenzo[11,12][1,6]dioxacyclododecino[2,3-b:4,5-c′]dipyridin-17-yl)ethanesulfonamide]	74%
2.85 nM	19.2 nM	Cn1cc2c(cc1=O)OCCCCc1cc(Cl)ccc1Oc1ccc(CS(C)(=O)=O)cc1-2 [Example A-36, 11-chloro-2-methyl-17-((methylsulfonyl)methyl)-6,7,8,9-tetrahydrodibenzo[4,5:7,8][1,6]dioxacyclododecino[3,2-c]pyridin-3(2H)-one]	68%
15.1 nM	8.77 nM	CCN1CCOc2cc(=O)n(C)cc2-c2cc(NS(=O)(=O)CC)ccc2Oc2ccc(Cl)cc2C1 [Example B-1, N-(11-chloro-8-ethyl-2-methyl-3-oxo-2,3,6,7,8,9-hexahydrodibenzo[f,i]pyrido[3,4-k][1,8,4]dioxazacyclododecin-17-yl)ethanesulfonamide]	43%
1.19 nM	2.79 nM	CCS(=O)(=O)Nc1ccc2c(c1)-c1cn(C)c(=O)cc1OCCOCc1cc(Cl)ccc1O2 [Example B-5, N-(11-chloro-2-methyl-3-oxo-2,3,6,7-tetrahydro-9H-dibenzo[6,7:9,10][1,4,8]trioxacyclododecino[11,12-c]pyridin-17-yl)ethanesulfonamide]	61%
